Reference: patent US20110112192A1, “VERFAHREN ZUR GERUCHSEXTINKTION” (priority 2007, published 2011)

What was measured:
[1] = Administration of acetylcysteine after the consumption of a garlic containing meal; assay type: in vivo, human; conditions: ACC-fizzing tablets (Hexal) given after the meal; 50 mg female test persons (32 to 74 kg), 75 mg male test persons (52 to 98 kg); 15 tests per person
Procedure: 1. Administration of acetylcysteine after the consumption of a garlic containing meal Battery of tests with 15 tests per person. Dosing: 50 mg with female test persons (32 to 74 kg body weight) i. 75 mg with male test persons (52 to 98 kg body weight) In these tests, the ACC-fizzing tablets of the Hexal company were applied. The positive test results were observed each within a time window of 10 to 20 minutes after administration of the acetylcysteine.

[2] = Administration of acetylcysteine before the consumption of a garlic containing meal; assay type: in vivo, human; conditions: administration about 10 minutes before the meal; 50 mg female, 75 mg male test persons; 15 tests per person
Procedure: 2. Administration of an acetylcysteine before the consumption of a garlic containing meal Battery of tests and dosage applied the same as under 1. The administration of acetylcysteine was done about 10 minutes before the meal.

With `CC(=O)N[C@@H](CS)C(=O)O` [acetylcysteine] the “odor after garlic containing meal” value [1] was “no odor in all tests” and the “odor formation after garlic containing meal” value [2] was “odor formation was likewise prevented”.
